In one test the target is T1, Caspase-3 (Homo sapiens, UniProt P42574).
T1 sequence (P42574 whole entry): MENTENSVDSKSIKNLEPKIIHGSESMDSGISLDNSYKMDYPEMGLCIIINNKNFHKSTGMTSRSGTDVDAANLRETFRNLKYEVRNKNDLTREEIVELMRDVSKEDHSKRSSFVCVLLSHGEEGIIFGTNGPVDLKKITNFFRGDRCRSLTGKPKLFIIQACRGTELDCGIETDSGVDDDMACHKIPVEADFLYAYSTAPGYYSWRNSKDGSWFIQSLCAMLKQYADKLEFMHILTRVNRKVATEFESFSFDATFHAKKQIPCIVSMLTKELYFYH
The test is described as follows: Inhibition of human recombinant caspase 3.

The target of a further test is T2, Caspase-7 (Homo sapiens, UniProt P55210).
T2 sequence (P55210 whole entry): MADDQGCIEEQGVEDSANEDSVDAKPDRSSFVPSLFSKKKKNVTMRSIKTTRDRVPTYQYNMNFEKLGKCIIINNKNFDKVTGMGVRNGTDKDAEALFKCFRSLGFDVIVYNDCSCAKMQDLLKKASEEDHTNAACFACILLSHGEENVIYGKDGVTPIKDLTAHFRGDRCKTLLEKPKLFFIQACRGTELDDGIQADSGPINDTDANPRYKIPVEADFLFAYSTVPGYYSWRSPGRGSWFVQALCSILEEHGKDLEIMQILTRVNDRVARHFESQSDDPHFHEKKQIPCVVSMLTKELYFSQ
Nature of the test: Inhibition of human recombinant caspase 7.

SMILES strings stand for the structures.

Drawing on ChEMBL document CHEMBL1153400, “Fluorinated isatin derivatives. Part 1: synthesis of new N-substituted (S)-5-[1-(2-methoxymethylpyrrolidinyl)sulfonyl]isatins as potent caspase-3 and -7 inhibitors” (Bioorg Med Chem, 2009), this text covers IC50 for nine compounds.

Broadly, the IC50 is the midpoint of a concentration-inhibition curve. With `CCN1C(=O)C(=O)c2cc(S(=O)(=O)N3CCC[C@H]3COC)ccc21`, the IC50 came to 183 nM at Caspase-3 and 319 nM at Caspase-7.
With `COC[C@@H]1CCCN1S(=O)(=O)c1ccc2c(c1)C(=O)C(=O)N2CCCOCCCOS(C)(=O)=O`, the IC50 at Caspase-3 and at Caspase-7 was over 100000 nM throughout.
With `CCCN1C(=O)C(=O)c2cc(S(=O)(=O)N3CCC[C@H]3COC)ccc21`, the IC50 at Caspase-3 worked out at 5.3 nM; at Caspase-7 it was 58 nM.
Take `COC[C@@H]1CCCN1S(=O)(=O)c1ccc2c(c1)C(=O)C(=O)N2`: at Caspase-7, the IC50 was determined as 170 nM.
`COC[C@@H]1CCCN1S(=O)(=O)c1ccc2c(c1)C(=O)C(=O)N2CCCOCCCF`: the IC50 at Caspase-3 and on Caspase-7 was over 100000 nM throughout.
For `COC[C@@H]1CCCN1S(=O)(=O)c1ccc2c(c1)C(=O)C(=O)N2CCCOCCCO`, at Caspase-7, the IC50 came out at 113000 nM.
Turning to `COC[C@@H]1CCCN1S(=O)(=O)c1ccc2c(c1)C(=O)C(=O)N2CCCCF`, the IC50 at Caspase-3 stood at 41 nM; on Caspase-7 it was 28 nM.
With `CCCN1C(=O)C(F)(F)c2cc(S(=O)(=O)N3CCC[C@H]3COC)ccc21`, the IC50 at Caspase-3 and at Caspase-7 was over 100000 nM in each case.
For the compound `CCCCN1C(=O)C(=O)c2cc(S(=O)(=O)N3CCC[C@H]3COC)ccc21`, the IC50 on Caspase-3 was 29 nM; on Caspase-7, 8.1 nM.
